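Following 48 hours of exposure in 96-well plates, responses at five concentrations were used to interpolate endpoints linearly. GI50 marks 50% less growth.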 Calls of active or inactive are those of the source. Cut-off read from the data, not from the text of the source: active = GI50 up to about 1.1 µM and inactive = higher.
Legend:
Assay in all cases: inhibition of tumour cell growth, NCI panel, 48 h
A549 = system: A549
CAKI-1 = system: CAKI-1
CCRF-CEM = system: CCRF-CEM
COLO 205 = system: COLO 205
DU-145 = system: DU-145
EKVX = system: EKVX
HOP-92 = system: HOP-92
HT-29 = system: HT-29
LOX IMVI = system: LOX IMVI
MCF7 = system: MCF7
MOLT-4 = system: MOLT-4
NCI-H522 = system: NCI-H522
OVCAR-4 = system: OVCAR-4
PC-3 = system: PC-3
RPMI-8226 = system: RPMI-8226
SK-MEL-28 = system: SK-MEL-28
SK-MEL-2 = system: SK-MEL-2
U-251 = system: U-251
UACC-257 = system: UACC-257
UO-31 = system: UO-31

Measured: GI50

N#Cc1c(-c2ccc(Cl)cc2)c2c(n(C3OC(CO)C(O)C(O)C3O)c1=S)CCCC2 (stereo not given)
inactive: A549 > 100 µM | CAKI-1 > 100 µM | CCRF-CEM 49.3 µM | COLO 205 38.3 µM | DU-145 > 100 µM | EKVX 56.1 µM | HOP-92 46 µM | HT-29 73.3 µM | LOX IMVI 47.2 µM | MCF7 55.2 µM | MOLT-4 26.1 µM | NCI-H522 63.2 µM | OVCAR-4 82.2 µM | PC-3 56.2 µM | RPMI-8226 44.3 µM | SK-MEL-28 78.7 µM | SK-MEL-2 > 100 µM | U-251 64.9 µM | UACC-257 > 100 µM | UO-31 74.5 µM

COc1ccc2c(c1OC(C)=O)C1=CC(=O)CCC13CCNC3C2 (stereo not given)
inactive: A549 > 100 µM | CAKI-1 > 100 µM | CCRF-CEM > 100 µM | COLO 205 > 100 µM | DU-145 > 100 µM | EKVX > 100 µM | HOP-92 > 100 µM | HT-29 > 100 µM | LOX IMVI > 100 µM | MCF7 > 100 µM | MOLT-4 > 100 µM | NCI-H522 > 100 µM | OVCAR-4 > 100 µM | PC-3 > 100 µM | RPMI-8226 > 100 µM | SK-MEL-28 > 100 µM | SK-MEL-2 > 100 µM | U-251 > 100 µM | UACC-257 > 100 µM | UO-31 > 100 µM

N#C/C(=C\c1ccc2[nH]ccc2c1)C(=O)NCCCCNC(=O)/C(C#N)=C/c1ccc2[nH]ccc2c1
inactive: A549 > 100 µM | CAKI-1 > 31.6 µM | CCRF-CEM > 31.6 µM | COLO 205 > 31.6 µM | DU-145 > 10 µM | EKVX > 31.6 µM | HOP-92 > 31.6 µM | HT-29 > 31.6 µM | LOX IMVI > 31.6 µM | MCF7 > 10 µM | MOLT-4 > 31.6 µM | NCI-H522 > 31.6 µM | OVCAR-4 > 31.6 µM | PC-3 > 10 µM | RPMI-8226 > 10 µM | SK-MEL-28 > 31.6 µM | SK-MEL-2 > 31.6 µM | U-251 > 31.6 µM | UACC-257 > 31.6 µM | UO-31 > 31.6 µM

CCOC(=O)CN1C(=O)c2cc([N+](=O)[O-])cc3cc([N+](=O)[O-])cc(c23)C1=O
inactive: A549 > 100 µM | CAKI-1 30.5 µM | CCRF-CEM 1.41 µM | COLO 205 24.7 µM | DU-145 > 25.3 µM | EKVX > 100 µM | HOP-92 > 77.8 µM | HT-29 34.7 µM | LOX IMVI 4.1 µM | MCF7 > 84.7 µM | MOLT-4 3.56 µM | NCI-H522 4.21 µM | OVCAR-4 > 100 µM | PC-3 > 100 µM | RPMI-8226 19.6 µM | SK-MEL-28 49.3 µM | SK-MEL-2 22.5 µM | U-251 > 88.5 µM | UACC-257 73.8 µM | UO-31 28.7 µM

O=C1Nc2ccccc2/C1=N/N1C(=O)/C(=C/c2ccccc2S)N=C1c1ccccc1
inactive: A549 89.5 µM | CAKI-1 91.6 µM | CCRF-CEM 33.3 µM | COLO 205 76 µM | DU-145 > 100 µM | EKVX 48.3 µM | HOP-92 77.6 µM | HT-29 > 100 µM | LOX IMVI 44.9 µM | MCF7 58.7 µM | MOLT-4 19.5 µM | NCI-H522 40.5 µM | OVCAR-4 27 µM | PC-3 47.8 µM | RPMI-8226 12.6 µM | SK-MEL-28 > 100 µM | SK-MEL-2 42.4 µM | U-251 67.6 µM | UACC-257 > 100 µM | UO-31 61.4 µM

CC(=O)O[C@@H](c1nccn1Cc1ccccc1)[C@H]1OC(C)(C)O[C@@H]1[C@H]1COC(C)(C)O1
inactive: A549 > 100 µM | CAKI-1 > 100 µM | CCRF-CEM > 100 µM | COLO 205 > 100 µM | DU-145 > 100 µM | EKVX > 100 µM | HOP-92 > 100 µM | HT-29 > 100 µM | LOX IMVI > 100 µM | MCF7 > 100 µM | MOLT-4 > 100 µM | NCI-H522 > 100 µM | OVCAR-4 > 100 µM | PC-3 > 100 µM | RPMI-8226 > 100 µM | SK-MEL-28 > 100 µM | SK-MEL-2 > 100 µM | U-251 > 100 µM | UACC-257 > 100 µM | UO-31 > 100 µM

COc1cccc(CCN2CCN(CCCc3ccccc3)CC2)c1
inactive: A549 94.6 µM | CAKI-1 67.3 µM | CCRF-CEM > 100 µM | COLO 205 21.1 µM | DU-145 > 100 µM | EKVX > 100 µM | HOP-92 8.41 µM | HT-29 31.8 µM | LOX IMVI 55.1 µM | MCF7 44.1 µM | MOLT-4 92.3 µM | NCI-H522 22.6 µM | OVCAR-4 51.1 µM | PC-3 > 100 µM | RPMI-8226 32.6 µM | SK-MEL-28 > 100 µM | SK-MEL-2 > 100 µM | U-251 > 100 µM | UACC-257 > 100 µM | UO-31 51.1 µM
